Drawing on a melting point compilation (Tetko et al.; mined from patent text by program, amines drawn as free bases though some values may be those of a salt), this text covers melting point for 89 compounds.

Consider `CCCc1c(OCCCCCCc2ccc(C(C)(C)C)c(O)c2O)ccc(C(=O)O)c1O`, for which the melting point is 85 to 87 °C.

Take `CC(=O)Nc1ccc(S(=O)(=O)Nc2cscn2)cc1`: the melting point was 231 to 232 °C.

The compound `CC(C)(C)C(=O)N[C@H]1CC[C@H](CCN2CCN(c3nccc4c3CCO4)CC2)CC1` returned a melting point of 185 °C.

As to `CC(CO)(CO)NS(=O)(=O)c1cc(NC(=O)c2cnn3c(C(F)F)cc(-c4ccc(C(F)(F)F)cc4)nc23)c(Cl)s1`, the melting point amounted to 237 °C.

The compound `COC(=O)C1=C(C)NC(=S)N(C(=O)OC(C)C)C1c1cccc([N+](=O)[O-])c1` (centres undefined) returned a melting point of 157 to 158 °C.

In turn, `Cc1noc2cc(F)c(-n3c(=O)cc(C(F)(F)F)n(C)c3=O)cc12` gave a melting point of 158 to 159 °C.

The compound `COc1nc(N)nc2c1ncn2[C@@H]1O[C@H](CO)[C@@H](O)[C@@]1(C)F` returned a melting point of 199 to 202 °C.

Take `COc1ccc2c(c1)C(=O)CCC21CCC(=O)NC1=O` (centres undefined): the melting point is 214 to 215 °C.

As for `O=[N+]([O-])c1ccccc1Cc1ncc[nH]1`, the melting point is 155 to 157 °C.

Regarding `CN(C)C(=O)COc1cc(Cl)ccc1C(=O)NCCN1CCN(C(=O)OC(C)(C)C)CC1`, the melting point was 139 to 140 °C.

Compound `O=C(O)C1(CCCCCCCCCCCCC2(C(F)F)CC2)CC1` displayed a melting point of 54 to 54.8 °C.

`CCCC[C@H](NC(=O)[C@H](CC(C)C)NC(=O)c1ccc(F)c(C(F)(F)F)c1)C(=O)CSCc1ccco1` showed a melting point of 112 to 114 °C.

As to `O=C(Nc1nc(-c2ccccc2)c(-c2nc3ccccc3c(=O)n2-c2ccccc2Cl)s1)c1ccccc1`, the melting point lay within 212 to 214 °C.

As to `CN(C)Cc1ccc(CSCCNc2nc(C(O)c3ccccc3)nn2C)o1` (centres undefined), the melting point lay in the range of 121 to 122 °C.

In turn, `CCN1CCC(=O)C(=C2SC=CS2)C1=O` gave a melting point of 114 to 117 °C.

As to `O=c1[nH]c(-c2cccc(Oc3ccc4c(c3)S(=O)(=O)N=C3CCCN34)c2)no1`, the melting point was > 250 °C.

Regarding `COC(=O)c1ccnc(OCc2nc(-c3ccccc3)oc2C)c1`, the melting point lay within 106 to 107 °C.

Consider `COc1ccc(-c2ccc(Cl)cc2)cc1OC1CCCC1`, for which the melting point lay in the range of 88 to 91 °C.

Compound `CN(NC=C1CSc2ccc(Cl)cc2C1=O)C(=O)OC(C)(C)C` had a melting point of 121 to 124 °C.

`O=C1C(Nc2ccccc2)=CC(=O)c2ncccc21`: the melting point was in the range of 182 to 184 °C.

Consider `CCCc1c(OCCCOc2ccc(C#N)cc2Cl)ccc(C(C)=O)c1O`, for which the melting point was 96 to 97 °C.

Turning to `COc1cc2c(cc1C#Cc1ccc(C)cc1)C(C)(C)CCC2(C)C`, the melting point was 127 °C.

In turn, `O=S1(=O)CCCSC(Cl)=N1` showed a melting point of 156 °C.

For the compound `COc1ccc2nc3[nH]cnc(=O)c3cc2c1`, the melting point is > 300 °C.

In turn, `Cc1ccc(NC(=O)c2ccccc2SSc2ccccc2C(=O)Nc2ccc(C)c(C)c2)cc1C` came in with a melting point of 224 to 227 °C.

In the case of `COc1ccc(CN(C)CCOc2ccc(NC(=O)c3cccc4c(=O)c5ccccc5[nH]c34)cc2)cc1OC`, the melting point amounted to 140 °C.

Compound `COC=C(C(=O)OC)N(C)c1nc(-c2ccc(Cl)cc2)cs1` came in with a melting point of 104 to 105 °C.

As to `O=C(Nc1ccc2ccc(Cl)nc2n1)C1CC1`, the melting point worked out at 250 °C.

In turn, `CSc1nc2c(Cl)ccc(-n3c(=O)cc(C(F)(F)F)n(C)c3=O)c2s1` gave a melting point of 79 to 81 °C.

Take `CC(=O)NC[C@H]1CN(c2ccc(N3CC(N(C)CCF)C3)c(F)c2)C(=O)O1`: the melting point lay within 126 to 127 °C.

For `CC(C)OP(C)(=O)COS(=O)(=O)c1c(Cl)cccc1C(C)C` (centres undefined), the melting point lay within 69.5 to 70.5 °C.

Regarding `CCCCCCCCCCCCSC1C(=O)N(c2c(Cl)cc(Cl)cc2Cl)N=C1Nc1cc(OC)c(Cl)cc1Cl` (centres undefined), the melting point fell in the range of 100 to 102 °C.

In the case of `N#Cc1cnn(-c2c(Cl)cc(Cl)cc2Cl)c1C=O`, the melting point was 152 °C.

With `COc1ccc(/C=C/c2nc3ccccc3c(=O)o2)cc1OC`, the melting point lay within 175 to 179 °C.

In the case of `CC(=O)c1sccc1CN1C(=O)C(NC(=O)Nc2cccc(C)c2)N=C(c2ccccc2F)c2ccccc21` (racemic), the melting point was in the range of 222 to 223 °C.

`CCCOc1ccc(C(=O)O)cc1-c1ccc(C#N)c(=O)[nH]1` showed a melting point of 277 to 279 °C.

`OC1CSC(Oc2cncc(-c3cncnc3)c2)C(O)C1O` (centres undefined) returned a melting point of 196 °C.

`OP(O)C1(NC(c2ccccc2)c2ccccc2)CCCC1` came in with a melting point of 204 to 205 °C.

Compound `Cc1ccc(-c2ccccc2-n2c(C)n[nH]c2=O)cc1` yielded a melting point of 102 to 104 °C.

`CCOC(=O)C(=CN(C)C)C(=O)c1cc2cc(F)c(Cl)cc2nc1Cl` displayed a melting point of 122 °C.

The compound `CNC1(c2ccccc2)CCN(C(c2ccccc2)(c2ccccc2)c2ccccc2)CC1` came in with a melting point of 125 °C.

For `COc1ccc2cc(-c3ccc(OCCN4CCCC4)cc3)sc2c1`, the melting point fell in the range of 151 to 154 °C.

For the compound `CCC(O)(CC)c1csc(-c2cccc(OCc3ccc(CO)c(CO)c3)c2)c1`, the melting point was 47 °C.

Take `C=CCN1CCc2c(sc(N)c2C(=O)c2ccc(Cl)cc2)C1`: the melting point lay within 118 to 120 °C.

`CCn1cc(C(=O)O)c(=O)c2cc(F)c(N3CCC(N)C3)c(C)c21` (centres undefined) came in with a melting point of 187 to 194 °C.

Take `CCC(Oc1cccc(C(F)F)c1Cl)C1=NCCN1` (centres undefined): the melting point lay within 96 to 97 °C.

For the compound `O=C1NCCCN1C1(CO)CCN(Cc2ccccc2)CC1`, the melting point came to 210 °C.

Take `Cn1nc(C(F)(F)F)cc1-c1ccc(F)cc1F`: the melting point fell in the range of 37 to 38 °C.

Compound `CCSCC(=O)c1cc(C(C)(C)C)c(O)c(C(C)(C)C)c1` registered a melting point of 133 to 134 °C.

As to `CCOc1ccc(C=CC(C)=O)cc1OC`, the melting point lay within 95 to 97 °C.

Compound `CNc1ncnc(N2CCc3ccccc3CC2)c1[N+](=O)[O-]` came in with a melting point of 144 to 146 °C.

Compound `Cn1cc(-c2cc3cccnc3[nH]2)c2cc(C(=O)NC(C)(C)CO)ccc21` gave a melting point of 161 to 162 °C.

The compound `CCN(CC)CCC(N)=NO` displayed a melting point of 52 to 54 °C.

In the case of `CC(=O)SCCc1nc[nH]n1`, the melting point was 84 to 86 °C.

`Cc1ccc(-c2cn(C)cc(-c3ccc(C)cc3)c2=O)cc1` gave a melting point of 212 to 214 °C.

`Cc1ccc(S(=O)(=O)c2cn(C(=O)OC(C)(C)C)c3cc(-c4ccc(F)cc4)ccc23)cc1` had a melting point of 135 °C.

`CCCCCCCCCCCCCCCCNC(=O)c1cc(OCCBr)c2ccccc2c1O` gave a melting point of 91 to 93 °C.

`Cc1[nH]c(=O)sc1C(=O)c1ccc(N(C)C)cc1` displayed a melting point of 224 to 226 °C.

In turn, `O=c1[nH]c2ccccc2c(=O)n1-c1ccc(Cl)cc1` gave a melting point of 288 to 290 °C.

`C#CCc1c(C)nc2c(OCc3c(C)cccc3NC(=O)C(C)=O)cccn12` registered a melting point of 158 to 160 °C.

`CCCNC(=O)N1Cc2cccn2-c2ccsc2C1=O` yielded a melting point of 120 °C.

The compound `CC(=O)OC(C(=O)O)c1c(C(C)C)cc(C(C)C)cc1C(C)C` (centres undefined) registered a melting point of 166 to 169 °C.

Turning to `COc1ccc(S(=O)(=O)NC(=O)c2ccc(C(=O)OC(C)C)nc2)cc1`, the melting point is 215 to 216 °C.

`COc1cc(COc2nn(-c3ccccc3)cc2C#N)ccc1OCc1nc(-c2ccco2)oc1C` returned a melting point of 167 to 168 °C.

For the compound `CCSC(=S)N1Cc2[nH]c3ccccc3c2CC1C(=O)O` (centres undefined), the melting point lay within 177 to 178 °C.

Regarding `CCCCn1c(=O)c2nc(-c3ccc(/C=C/C(=O)O)cc3)[nH]c2n(C)c1=O`, the melting point was > 300 °C.

`CC(C)(CCn1cncn1)NCC(O)c1ccc(O)c(CO)c1` (centres undefined): the melting point was 177 to 180 °C.

As to `CC(C)(C)C(NC(=O)Cc1ccc2cccnc2c1)NC(=NC#N)Nc1cccc2ncccc12` (centres undefined), the melting point was in the range of 147 to 148 °C.

Turning to `CN1CCN(c2ccccc2CC2CCN(c3ccc(F)c(F)c3)C2=O)CC1` (centres undefined), the melting point lay within 130 to 131 °C.

As to `Cc1cc(N)nc(CCCCCCCCCCO)c1O`, the melting point fell in the range of 138 to 139 °C.

In the case of `Cc1cccc(C(O)c2cncn2C(c2ccccc2)(c2ccccc2)c2ccccc2)c1C` (centres undefined), the melting point is 203 to 207 °C.

In turn, `CN(CCn1ncc2ccccc2c1=O)CC(O)c1ccc(NS(C)(=O)=O)cc1` (centres undefined) yielded a melting point of 134 to 137 °C.

The compound `Clc1cc(Cl)c2[nH]c(-c3ccccc3)cc2c1` returned a melting point of 136 to 138 °C.

For the compound `CC(C)N(N)C(=O)c1ccc(-c2ccc(Cl)cc2)o1`, the melting point lay in the range of 142 to 144 °C.

`COc1ccc(CN2CC=C(c3cc4ccccc4s3)CC2)cc1` displayed a melting point of 158 to 160 °C.

With `CNc1c(F)cc2c(=O)c(C(=O)O)cn(-c3nc(N)c(F)cc3F)c2c1F`, the melting point fell in the range of 270 to 273 °C.

As for `Cc1cc(C)c(S(=O)(=O)N[C@@H](CNC(=O)c2ccc3c(cnn3CCc3cc(=O)[nH]c(N)n3)c2)C(=O)O)c(C)c1`, the melting point was 194 to 195 °C.

For the compound `CCOCc1nc2c(N)nc3ccccc3c2n1CCCC1(O)CCCCC1`, the melting point lay within 175 to 176 °C.

Compound `CNC(=O)N1CCC(Oc2c(F)c(F)c(F)c(F)c2F)(c2ccccc2)CC1` had a melting point of 87 to 89 °C.

In turn, `Brc1ccc2c(c1)C(c1ccccn1)=CCc1nncn1-2` yielded a melting point of 219 °C.

`CC(=O)c1ccc(-c2ccc(Br)cc2F)cc1` gave a melting point of 94.5 to 95.5 °C.

In turn, `Nc1cc(C(=O)O)cc(S(N)(=O)=O)c1NCc1ccccc1` showed a melting point of 218 to 219 °C.

Compound `COc1cccc(CC(NC(C)=O)C(=O)O)c1OCc1ccccc1` (racemic) displayed a melting point of 169 to 170 °C.

Consider `COC(c1cccs1)C1C(c2ccccc2)CC(=O)N1C` (centres undefined), for which the melting point fell in the range of 101 to 102 °C.

Compound `O=C1CCSc2cc(F)ccc21` came in with a melting point of 61 to 66 °C.

For `CC(C)(C(=O)O)C(=O)NCc1cn(C(c2ccccc2)(c2ccccc2)c2ccccc2)cn1`, the melting point lay within 174 to 175 °C.

Compound `Cc1ccc(N2CCC(N)=N2)cc1` returned a melting point of 142 to 143 °C.

`CSC1COc2cc(NS(C)(=O)=O)c(Oc3ccccc3)cc2C1=O` (centres undefined) yielded a melting point of 126 to 128 °C.

As to `Oc1c(I)cc(-c2c3ccccc3cc3sc4ccccc4c23)cc1I`, the melting point lay within 213 to 214 °C.
